How the values were obtained:
[1] = test system: Bacillus cereus (ATCC 11778); assay: MIC, NCCLS broth microdilution assay; assay type: cell-based; settings: A = B. cereus ATCC 11778
Outline: (§1)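 The antifungal assay used the Manual of Clinical Microbiology (1995) procedure. […] minimal inhibitory concentrations came from NCCLS broth microdilution per M7-A4, M11-A4 and M27-T.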

[2] = test system: Staphylococcus aureus (ATCC 13709, a methicillin sensitive strain (MSSA)); assay: MIC, NCCLS broth microdilution assay; assay type: cell-based; settings: E = S. aureus ATCC 13709
Outline: as §1

[3] = test system: Staphylococcus aureus (ATCC 27660, a methicillin resistant strain (MRSA)); assay: MIC, NCCLS broth microdilution assay; assay type: cell-based; settings: F = S. aureus ATCC 27660
Outline: as §1

[4] = test system: Candida albicans (ATCC 38247); assay: Antifungal MIC assay; assay type: cell-based; settings: B = C. albicans ATCC 38247
Outline: as §1

[5] = test system: methicillin resistant Staphylococcus aureus ATCC 33591; assay: Murine neutropenic thigh model; assay type: in vivo; settings: neutropenic female CF1 mice, 6 hr after treatment
Method: A S. aureus ATCC 33591 culture was grown to log phase overnight and diluted in phosphate buffered saline (pH 7.2) to an optical density of about 0.1 at 600 nm, giving an approximate concentration of 10^8 cfu/mL. The suspension was diluted 1:100 in phosphate buffered saline (pH 7.2) for a final concentration of 10^6 cfu/mL.
Outbred female CF1 mice (approx. 20 gram body weight) were rendered neutropenic by treatment with cyclophosphamide (200 mg/kg body weight, intraperitoneal injection) at 2 and 4 days prior to inoculation. Groups of 5 mice were inoculated with 0.05 mL of the bacteria (approx. 10^6 cfu/mL) into the anterior thigh. Each group was treated intravenously two hours post infection with vehicle (phosphate buffered saline) or test compound. The mice were sacrificed at either 6 or 24 hrs after treatment and thighs were collected aseptically. Each thigh was weighed, placed into sterile saline, and homogenized. The tissue homogenates were diluted appropriately for plating on agar plates. Colony counts were recorded (cfu/gram) and compared to control groups.
In vivo efficacy was shown by a decrease in colony count (log cfu/gram of tissue) in the compound-treated animals when compared against the colony count in animals given only the vehicle.

E. faecalis ATCC 29212 = assay: MIC, NCCLS broth microdilution assay; assay type: cell-based, Enterococcus faecalis; settings: C = E. faecalis ATCC 29212
Outline: (§2)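 MICs were determined by NCCLS broth microdilution following documents M7-A4 and M11-A4 (1997).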

S. pneumoniae ATCC 49619 = assay: MIC, NCCLS broth microdilution assay; assay type: cell-based, Streptococcus pneumoniae; settings: H = S. pneumoniae ATCC 49619
Outline: as §2

[6] = test system: Enterococcus faecium (ATCC 51559, a vancomycin resistant strain (VRE)); assay: MIC, NCCLS broth microdilution assay; assay type: cell-based; settings: D = E. faecium ATCC 51559
Outline: as §1

[7] = test system: Staphylococcus epidermidis (ATCC 12228); assay: MIC, NCCLS broth microdilution assay; assay type: cell-based; settings: G = S. epidermidis ATCC 12228
Outline: as §1

[8] = test system: Streptococcus pneumoniae (ATCC 51422, a penicillin resistant strain (PRSP)); assay: MIC, NCCLS broth microdilution assay; assay type: cell-based; settings: I = S. pneumoniae ATCC 51422
Outline: as §1

[9] = 50 mg/kg intravenously two hours post infection

SMILES | Minimum Inhibitory Concentration (MIC) [1] | Minimum Inhibitory Concentration (MIC) [2] | Minimum Inhibitory Concentration (MIC) [3] | Minimum Inhibitory Concentration (MIC) [4] | Colony Count (log cfu/gram) Compound ([5]; 25 mg/kg intravenously two hours post infection) [log cfu/gram] | Colony Count (log cfu/gram) Compound [5, 9] [log cfu/gram] | Minimum Inhibitory Concentration (MIC) (E. faecalis ATCC 29212) | Minimum Inhibitory Concentration (MIC) (S. pneumoniae ATCC 49619) | Minimum Inhibitory Concentration (MIC) [6] | Minimum Inhibitory Concentration (MIC) [7] | Minimum Inhibitory Concentration (MIC) [8]
Cn1cc(NC(=O)c2cc(NC(=O)c3cc(NC(=O)c4ccc(Cl)cc4F)c[nH]3)cn2C)cc1C(=O)NCCN1CCC(F)CC1 [Compound A-26] | +++ (+++ = MIC ≦ 4) | +++ (+++ = MIC ≦ 4) | +++ (+++ = MIC ≦ 4) | ++ (++ = 4 < MIC < 12) | 6.37 | 5.34 | +++ (+++ = MIC ≦ 4) | +++ (+++ = MIC ≦ 4) | – | – | –
Cn1cc(NC(=O)c2cc(NC(=O)c3cc(NC(=O)c4ccc(Cl)c(Cl)c4)cn3C)cn2C)cc1C(=O)NCCN1CCOCC1 [Compound B-53] | +++ (+++ = MIC ≦ 4) | +++ (+++ = MIC ≦ 4) | +++ (+++ = MIC ≦ 4) | >32 µg/mL | – | – | +++ (+++ = MIC ≦ 4) | +++ (+++ = MIC ≦ 4) | +++ (+++ = MIC ≦ 4) | +++ (+++ = MIC ≦ 4) | +++ (+++ = MIC ≦ 4)
Cn1cc(NC(=O)c2cc(NC(=O)c3cc(NC(=O)c4ccc(Cl)cc4)cn3C)cn2C)cc1C(=O)NCCN1CCSCC1 [Compound B-58] | +++ (+++ = MIC ≦ 4) | +++ (+++ = MIC ≦ 4) | +++ (+++ = MIC ≦ 4) | >32 µg/mL | – | – | +++ (+++ = MIC ≦ 4) | +++ (+++ = MIC ≦ 4) | + (+ = 12 ≦ MIC ≦ 32) | ++ (++ = 4 < MIC < 12) | +++ (+++ = MIC ≦ 4)
Cn1cc(NC(=O)c2cc(NC(=O)c3cc(NC(=O)c4ccc(Cl)cc4NCCN4CCCCC4)cn3C)cn2C)cc1C(=O)NCCN1CCCCC1 [Compound B-64] | +++ (+++ = MIC ≦ 4) | +++ (+++ = MIC ≦ 4) | +++ (+++ = MIC ≦ 4) | +++ (+++ = MIC ≦ 4) | – | – | +++ (+++ = MIC ≦ 4) | +++ (+++ = MIC ≦ 4) | +++ (+++ = MIC ≦ 4) | +++ (+++ = MIC ≦ 4) | +++ (+++ = MIC ≦ 4)
Cn1cc(NC(=O)c2cc(NC(=O)c3cc(NC(=O)c4ccc(C#N)cc4)cn3C)cn2C)cc1C(=O)NCCN1CCOCC1 [Compound B-67] | +++ (+++ = MIC ≦ 4) | – | – | >32 µg/mL | – | 7.73 | +++ (+++ = MIC ≦ 4) | +++ (+++ = MIC ≦ 4) | – | – | –
Cn1cc(NC(=O)c2cc(NC(=O)c3cc(NC(=O)c4ccc(C#N)cc4)cn3C)cn2C)cc1C(=O)NCCN1CCSCC1 [Compound B-68] | +++ (+++ = MIC ≦ 4) | +++ (+++ = MIC ≦ 4) | +++ (+++ = MIC ≦ 4) | >32 µg/mL | – | – | +++ (+++ = MIC ≦ 4) | +++ (+++ = MIC ≦ 4) | +++ (+++ = MIC ≦ 4) | +++ (+++ = MIC ≦ 4) | +++ (+++ = MIC ≦ 4)
Cn1cc(NC(=O)c2cc(NC(=O)c3ccc(Cl)cc3F)c[nH]2)cc1C(=O)Nc1cc(C(=O)NCCN2CCCCC2)n(CCCO)c1 [Compound C-9] | +++ (+++ = MIC ≦ 4) | +++ (+++ = MIC ≦ 4) | +++ (+++ = MIC ≦ 4) | +++ (+++ = MIC ≦ 4) | – | – | +++ (+++ = MIC ≦ 4) | +++ (+++ = MIC ≦ 4) | +++ (+++ = MIC ≦ 4) | +++ (+++ = MIC ≦ 4) | +++ (+++ = MIC ≦ 4)
CN(C)CCCn1cc(NC(=O)c2cc(NC(=O)c3cc(NC(=O)c4ccc(F)cc4F)cn3C)cn2C)cc1C(=O)NCCN1CCCCC1 [Compound D-2] | +++ (+++ = MIC ≦ 4) | + (+ = 12 ≦ MIC ≦ 32) | +++ (+++ = MIC ≦ 4) | + (+ = 12 ≦ MIC ≦ 32) | – | – | +++ (+++ = MIC ≦ 4) | +++ (+++ = MIC ≦ 4) | +++ (+++ = MIC ≦ 4) | +++ (+++ = MIC ≦ 4) | +++ (+++ = MIC ≦ 4)
Cc1cc(NC(=O)c2cc(NC(=O)c3cc(NC(=O)c4ccc(Cl)cc4F)cn3C)cn2CCN2CCOCC2)sn1 [Compound D-8] | +++ (+++ = MIC ≦ 4) | +++ (+++ = MIC ≦ 4) | +++ (+++ = MIC ≦ 4) | >32 µg/mL | – | – | +++ (+++ = MIC ≦ 4) | +++ (+++ = MIC ≦ 4) | +++ (+++ = MIC ≦ 4) | +++ (+++ = MIC ≦ 4) | +++ (+++ = MIC ≦ 4)
Cc1cc(NC(=O)c2cc(NC(=O)c3cc(NC(=O)c4ccc(Cl)cc4F)c[nH]3)cn2CCN2CCOCC2)sn1 [Compound D-9] | +++ (+++ = MIC ≦ 4) | +++ (+++ = MIC ≦ 4) | +++ (+++ = MIC ≦ 4) | >32 µg/mL | – | – | +++ (+++ = MIC ≦ 4) | +++ (+++ = MIC ≦ 4) | +++ (+++ = MIC ≦ 4) | +++ (+++ = MIC ≦ 4) | +++ (+++ = MIC ≦ 4)
Cc1cc(NC(=O)c2cc(NC(=O)c3cc(NC(=O)c4ccc(Cl)cc4F)c[nH]3)cn2CCN2CCCC2)sn1 [Compound D-10] | +++ (+++ = MIC ≦ 4) | +++ (+++ = MIC ≦ 4) | + (+ = 12 ≦ MIC ≦ 32) | ++ (++ = 4 < MIC < 12) | – | – | +++ (+++ = MIC ≦ 4) | +++ (+++ = MIC ≦ 4) | +++ (+++ = MIC ≦ 4) | +++ (+++ = MIC ≦ 4) | +++ (+++ = MIC ≦ 4)
Cc1cc(NC(=O)c2cc(NC(=O)c3cc(NC(=O)c4ccc(Cl)cc4F)cn3C)cn2CCCN(C)C)sn1 [Compound D-12] | +++ (+++ = MIC ≦ 4) | +++ (+++ = MIC ≦ 4) | +++ (+++ = MIC ≦ 4) | +++ (+++ = MIC ≦ 4) | – | – | +++ (+++ = MIC ≦ 4) | +++ (+++ = MIC ≦ 4) | ++ (++ = 4 < MIC < 12) | +++ (+++ = MIC ≦ 4) | +++ (+++ = MIC ≦ 4)
Cn1cc(NC(=O)c2cc(NC(=O)c3ccc(Cl)cc3F)c[nH]2)cc1C(=O)Nc1cc(C(=O)NCCN2CCCCC2)n(CCN2CCOCC2)c1 [Compound D-13] | +++ (+++ = MIC ≦ 4) | +++ (+++ = MIC ≦ 4) | +++ (+++ = MIC ≦ 4) | + (+ = 12 ≦ MIC ≦ 32) | – | – | +++ (+++ = MIC ≦ 4) | +++ (+++ = MIC ≦ 4) | ++ (++ = 4 < MIC < 12) | +++ (+++ = MIC ≦ 4) | +++ (+++ = MIC ≦ 4)
